Legend:
[1] = test system: HMC 1.1 line (containing the p.V560G mutation)
Description: (§1) Used in the research were four mastocyte cell lines: • HMC-1.1 containing the pV560G KIT gene mutation; • HMC-1.2 containing the pG560V and pD816V KIT gene mutations, • ROSA KIT D816V containing the pD816V KIT mutation; • ROSA KIT WT - line containing no KIT mutation [21-23].
(§2) The culture was grown in a cell incubator at the temperature of 37 °C and at 5% CO2 content, in sterile conditions in a chamber with laminar flow of sterile air. Used was Iscove's Modified Dulbecco's Medium (Merck Millipore) supplemented with 1.2 mM of α-thioglycerol, 50 mL of Foetal Bovine Serum (ATCC), and 5 mL of antibiotics (PEN./STREP. 100x, Merck Millipore)
(§3) The cells were grown for 48 hours on a 96-well plate at the concentrations 5 ×10^4 cells per well for the HMC 1.1. and HMC 1.2 lines, respectively, and at the concentration of 7.5 ×10^4 cells per well for the ROSA KIT D816V and ROSA KIT WT lines.
(§4) Then, the working 2-ME solution was diluted in 100 µL of DMSO so as to obtain the final solution concentrations of 1, 5, and 10 in 100 µL of DMSO, respectively.
(§5) The control were cells treated with the corresponding amounts of DMSO with no 2-ME added.
(§6) Following 48 hours into incubation, each well was added 50 µL of the XTT solution (Roche Diagnostics GmbH, Mannheim, Germany) prepared in accordance with the manufacturer's instructions. After 4 hours of cell incubation with XTT the level of absorbance was read using the Cytation 3 Imaging Reader (BioTek, USA) at the wavelength of 560 nm.

[2] = test system: ROSA KIT WT line (without KIT gene mutation)
Description: as §1
(§7) The culture was grown in a cell incubator at the temperature of 37 °C and at 5% CO2 content. […] Used to grow the culture was Iscove's Modified Dulbecco's Medium (Merck Millipore) added with 50 mL of Foetal Bovine Serum (ATCC), and 5 mL of antibiotics (PEN./STREP. 100x, Merck Millipore), while the medium used for the ROSA KIT WT line was additionally supplemented with bone marrow stem cell growth factor rhSCF (R&D Systems, Minneapolis, USA) in the final concentration of 80 ng/ml.
as §3, §4, §5, §6

[3] = test system: HMC 1.1 line (containing the p.V560G mutation); assay: cells; settings: Homo sapiens, 48 h
Description: as §1, §2, §3, §4, §5, §6

[4] = test system: ROSA KIT WT line (without KIT gene mutation); assay: cells; settings: 48 h, read-out: inhibited the cell growth by
Description: as §1, §7, §3, §4, §5, §6

`COc1cc2c(cc1O)CC[C@@H]1[C@@H]2CC[C@]2(C)[C@@H](O)CC[C@@H]12` [2-ME, 2-methoxyestradiol] was tested, and the “cytotoxicity to neoplastic MCs” value [1] was “selectively cytotoxic”, the “cytotoxicity to regular MCs” value [2] was “did not demonstrate any such activity” and the viability at 5 µM ([3]; read-out: cell viability, HMC 1.1 line, 5 µM, 48 hours, remaining viability vs DMSO control) was 63%. The viability at 10 µM ([3]; read-out: cell viability, HMC 1.1 line, 10 µM, 48 hours, remaining viability vs DMSO control) was 67%, the inhibition at 1 µM ([3]; read-out: reduced proliferation of cells by) was 29% and the viability at 1 µM ([3]; read-out: viability of the cells, HMC 1.1 line, 1 µM, 48 hours, remaining viability vs DMSO control) was 71%. It also gave an inhibition at 1 µM [4] of 5%, an inhibition at 5 µM [4] of 12% and an inhibition at 10 µM [4] of 14%.
